Test results as given in ChEMBL document CHEMBL1201862, “PubChem BioAssay data set” (2004).
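Test compounds were applied to cells in 96-well plates for 48 hours at 5 doses. GI50: concentration for 50% inhibition of growth.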 The source made the active and inactive calls. Cut-off read from the data, not from the text of the source: active = GI50 up to about 1.1 µM and inactive = higher.

Columns and labels:
Experiment in all cases: NCI anticancer screen, dose series, 48 h
[1] = tested on: A498
[2] = tested on: ACHN
[3] = tested on: CCRF-CEM
[4] = tested on: COLO 205
[5] = tested on: DMS-114
[6] = tested on: DMS-273
[7] = tested on: HCT-15
[8] = tested on: HL-60
[9] = tested on: HOP-18
[10] = tested on: HOP-92
[11] = tested on: IGROV-1
[12] = tested on: K562
[13] = tested on: KM-20L2
[14] = tested on: LOX IMVI
[15] = tested on: LXFL 529
[16] = tested on: M14
[17] = tested on: M19-MEL
[18] = tested on: MOLT-4
[19] = tested on: NCI-H23
[20] = tested on: NCI-H460
[21] = tested on: OVCAR-4
[22] = tested on: RPMI-8226
[23] = tested on: RXF 393
[24] = tested on: RXF 631
[25] = tested on: SF-539
[26] = tested on: SK-MEL-28
[27] = tested on: SK-OV-3
[28] = tested on: SN12C
[29] = tested on: SNB-19
[30] = tested on: SNB-75
[31] = tested on: SNB-78
[32] = tested on: U-251
[33] = tested on: UACC-62
[34] = tested on: XF498
[35] = tested on: 786-0
[36] = tested on: A549
[37] = tested on: DLD-1
[38] = tested on: EKVX
[39] = tested on: HCC 2998
[40] = tested on: HCT-116
[41] = tested on: HOP-62
[42] = tested on: HT-29
[43] = tested on: KM12
[44] = tested on: Malme-3M
[45] = tested on: NCI-H522
[46] = tested on: OVCAR-3
[47] = tested on: OVCAR-5
[48] = tested on: OVCAR-8
[49] = tested on: SF-268
[50] = tested on: SF-295
[51] = tested on: SK-MEL-2
[52] = tested on: SK-MEL-5
[53] = tested on: SW-620
[54] = tested on: TK-10
[55] = tested on: UACC-257
[56] = tested on: UO-31
[57] = tested on: CAKI-1
[58] = tested on: NCI-H226
[59] = tested on: SR

Measured: GI50

C/C(Cc1ccccc1)=N\NC(N)=S
> 100 µM: [7]
inactive: [1] > 100 µM | [2] > 100 µM | [3] > 100 µM | [4] > 100 µM | [5] 76 µM | [6] > 100 µM | [8] > 100 µM | [9] > 100 µM | [10] 67.1 µM | [11] > 100 µM | [12] > 100 µM | [13] > 100 µM | [14] > 100 µM | [15] > 100 µM | [16] > 100 µM | [17] > 100 µM | [18] > 100 µM | [19] > 100 µM | [20] > 100 µM | [21] > 100 µM | [22] 92.9 µM | [23] 70.1 µM | [24] > 100 µM | [25] > 100 µM | [26] > 100 µM | [27] > 100 µM | [28] > 100 µM | [29] > 100 µM | [30] > 100 µM | [31] > 100 µM | [32] > 100 µM | [33] > 100 µM | [34] > 100 µM

COCCCNC(=O)C1C(=O)N(CCCOC)C(=O)/C1=N\N (configuration not stated)
> 100 µM: [7]
inactive: [35] > 100 µM | [1] > 100 µM | [36] > 100 µM | [2] > 100 µM | [3] > 100 µM | [4] > 100 µM | [37] > 100 µM | [5] > 100 µM | [6] > 100 µM | [38] > 100 µM | [39] > 100 µM | [40] > 100 µM | [8] > 100 µM | [9] > 100 µM | [41] > 100 µM | [10] > 100 µM | [42] > 100 µM | [12] > 100 µM | [13] > 100 µM | [43] > 100 µM | [15] > 100 µM | [16] > 100 µM | [17] > 100 µM | [18] > 100 µM | [44] > 100 µM | [19] > 100 µM | [20] > 100 µM | [45] > 100 µM | [46] > 100 µM | [21] > 100 µM | [47] > 100 µM | [48] > 100 µM | [22] > 100 µM | [23] > 100 µM | [24] > 100 µM | [49] > 100 µM | [50] > 100 µM | [25] > 100 µM | [26] > 100 µM | [51] > 100 µM | [52] > 100 µM | [28] > 100 µM | [29] > 100 µM | [30] 38.3 µM | [31] > 100 µM | [53] > 100 µM | [54] > 100 µM | [32] > 100 µM | [55] > 100 µM | [33] > 100 µM | [56] > 100 µM

C/C(=N\Nc1ccccc1)c1sc(-c2nc(C)c(/C(C)=N/Nc3ccccc3)s2)nc1C
11.4 µM: [7]
inactive: [35] 18.8 µM | [1] > 46.1 µM | [36] 13.5 µM | [2] 10.4 µM | [57] > 58.2 µM | [3] 28.3 µM | [4] 8.24 µM | [37] 22.1 µM | [5] 11.5 µM | [6] 8.93 µM | [38] 24.7 µM | [39] 7.93 µM | [40] 33.7 µM | [8] 31.8 µM | [9] > 45 µM | [10] 10.4 µM | [42] 9.06 µM | [11] 14.1 µM | [12] 7.36 µM | [13] 6.46 µM | [43] 24.7 µM | [14] 7.96 µM | [15] 7.06 µM | [16] 7.71 µM | [17] 17.2 µM | [18] 19.2 µM | [44] 16.1 µM | [58] 40.4 µM | [19] 32.7 µM | [20] 42.2 µM | [45] 18.1 µM | [46] 23.6 µM | [21] 21.2 µM | [47] 51.3 µM | [48] 33.4 µM | [22] 12.6 µM | [23] 22.8 µM | [50] 9.98 µM | [25] 16.1 µM | [26] > 48.2 µM | [51] > 100 µM | [52] 16.7 µM | [27] 58.5 µM | [28] > 78.2 µM | [29] > 63.1 µM | [30] 23.4 µM | [31] > 64.7 µM | [59] 25.6 µM | [53] 13.8 µM | [54] 80.9 µM | [32] 37.1 µM | [55] 35.1 µM | [33] 4.07 µM | [56] 8.83 µM | [34] 45.6 µM
